What was measured:
[1] = test system: human pneumococcal serum 007sp; assay: Glycan microarray binding of human pneumococcal reference serum 007sp to immobilised saccharides; conditions: saccharides coated on modified CodeLink NHS slides; pooled sera of 287 humans immunized with Pneumovax; FIG. 5
Description: (§1) Microarray slides coated with the saccharides of general formula (I) were synthesized by conjugating the saccharides of general formula (I) to said modified microarray slides, and incubated with rabbit anti-Streptococcus pneumoniae type 1 typing serum […] in the presence or absence of native Streptococcus pneumoniae type 1 polysaccharide.
[…] Slides were washed three times with water and three times with ethanol, centrifuged to dryness, and stored under argon until spotting. Diluted saccharides of general formula (I) were printed onto the modified microarray slides at 0.4 nL per spot by an automatic piezoelectric arraying robot (Scienion, Berlin, Germany). For completion of the immobilization reaction, printed slides were stored for 24 h in a humidified chamber.
(§2) Microarray slides were washed three times with water. Unreacted maleimide was quenched by submerging the slides in β-mercaptoethanol (0.1%, v/v) in PBS for 1 h at room temperature. Slides were washed three times with water and with ethanol, centrifuged to dryness, and blocked with BSA (1%, w/v) in PBS for 1 h at room temperature. Blocked slides were washed (2×PBS, 3×water), centrifuged, and incubated with the sera dilutions.
CodeLink NHS slides were incubated for 24 h (1% w/v in PBS) at 4° C. […]

[2] = test system: rabbit anti-Streptococcus pneumoniae type 1 typing serum; assay: Glycan microarray binding of rabbit anti-SP1 typing serum to immobilised saccharides; conditions: saccharides coated on modified GAPS II or CodeLink NHS slides; FIGS. 6-8
Description: as §1
Maleimide-functionalized microarrays were produced by submerging amine-coated slides (GAPS II slides, Corning) in 6-maleimidohexanoic acid N-hydroxysuccinimide ester (2 mM) in dry DMF with diisopropylethylamine (2.5% v/v) for 24 h at room temperature. Slides were washed three times with water and three times with ethanol, centrifuged to dryness, and stored under argon until spotting. Diluted saccharides of general formula (I) were printed onto the modified microarray slides at 0.4 nL per spot by an automatic piezoelectric arraying robot (Scienion, Berlin, Germany). For completion of the immobilization reaction, printed slides were stored for 24 h in a humidified chamber.
as §2, with “Blocked slides were washed (2×PBS, 3×water), centrifuged, and incubated with the sera dilutions.” left out

SMILES: CC(=O)N[C@H]1[C@@H](O[C@@H]2[C@H](O)[C@@H](O)[C@@H](O[C@H]3[C@@H](O)[C@@H](C(=O)O)O[C@H](O)[C@@H]3O)O[C@@H]2C(=O)O)O[C@H](C)[C@H](N)[C@@H]1O [α-2,4,6-trideoxy-4-amino-D-GalNAc-(1→4)-α-D-GalAp-(1→3)-α-D-GalAp]
- binding of human pneumococcal serum 007sp to saccharide structure on microarray slides [1]: bound
- binding of rabbit anti-Streptococcus pneumoniae type 1 typing serum to saccharide structure on microarray slides [2]: bound

SMILES: O=C(O)[C@H]1O[C@H](O[C@H]2[C@@H](O)[C@@H](C(=O)O)O[C@H](O)[C@@H]2O)[C@H](O)[C@@H](O)[C@H]1O [α-D-GalAp-(1→3)-α-D-GalAp]
- binding of human pneumococcal serum 007sp to saccharide structure on microarray slides [1]: bound
- binding of rabbit anti-Streptococcus pneumoniae type 1 typing serum to saccharide structure on microarray slides [2]: bound
